Experimental data from patent EP0353821B1, “Antipsychotic 3-piperazinyl-benzazole derivatives” (JANSSEN PHARMACEUTICA N.V., priority 1988, dated 1990).
Where two headings read alike, the source gives them in different places.

How the values were obtained:
[1] = tested on: norepinephrine-induced phenomena (mortality); experiment: Combined apomorphine-, tryptamine- and norepinephrine test in rats: norepinephrine (NOR) part; assay type: in vivo, adult male Wistar rats; conditions: Rattus norvegicus; compound subcutaneously or orally; 1.25 mg/kg norepinephrine i.v. at 120 minutes; mortality up to 60 minutes later; dose which protects 50% of the animals; read-out: Combined test in rats; ED₅₀ in mg/kg (NOR)
Procedure: (§1) The combined apomorphine (APO)-, tryptamine (TRY)- and norepinephrine (NOR) test in rats.
(§2) The experimental animals used in this test were adult male Wistar rats (weight 240 ± 10g). After an overnight fast the animals were treated subcutaneously or orally with an aqueous solution of the compound under investigation (1ml/100g body weight) (time = zero) and put in isolated observation cages. […] At the end of this 1 hour period (time = 90 minutes) the same animals were injected intravenously with 40 mg/kg of tryptamine (TRY) and the presence of the typical tryptamine-induced bilateral tonic seizures and hyperaemia of the ears was noted. Two hours after pretreatment (time = 120 minutes) finally, the same animals were challenged with 1.25 mg/kg intravenously of norephinephrine (NOR) and possible mortality was looked for up to 60 minutes later.
(§3) The table 3 gives the ED₅₀-values of a number of the compounds under consideration. As used herein, the ED₅₀-value represents the dose which protects 50% of the animals from apomorphine-, tryptamine- or norepinephrine-induced phenomena.

[2] = tested on: tryptamine-induced bilateral tonic seizures and hyperaemia of the ears; experiment: Combined apomorphine-, tryptamine- and norepinephrine test in rats: tryptamine (TRY) part; assay type: in vivo, adult male Wistar rats; conditions: Rattus norvegicus, 1.5 h, compound subcutaneously or orally, 40 mg/kg tryptamine i.v. at 90 minutes, dose which protects 50% of the animals, read-out: Combined test in rats
Procedure: as §1, §2, §3

[3] = tested on: apomorphine-induced phenomena: agitation and stereotypic chewing; experiment: Combined apomorphine-, tryptamine- and norepinephrine test in rats: apomorphine (APO) part; assay type: in vivo, adult male Wistar rats; conditions: Rattus norvegicus, read-out: Combined test in rats, ED₅₀ in mg/kg (APO)
Procedure: as §1, §2, §3

[4] = tested on: apomorphine (emesis); experiment: The apomorphine test in dogs (APO-dog); assay type: in vivo, beagle dogs; conditions: Canis lupus familiaris, 1 h; compound subcutaneously or orally; 0.31 mg/kg (s.c.) apomorphine one hour thereafter; dose which protects 50% of the animals from emesis; read-out: (APO)-dog test, ED₅₀ in mg/kg
Procedure: The apomorphine test in dogs (APO-dog).
The method used is described by P.A.J. Janssen and C.J.E. Niemegeers in Arzneim.-Forsch. (Drug Res.), 9, 765-767 (1959). The compounds listed in table 3 were administered subcutaneously or orally to beagle dogs at different doses and the animals were challenged one hour thereafter with a standard dose of 0.31 mg/kg (s.c.) of apomorphine.
The table 3 gives the ED₅₀-values of a number of the compounds under consideration. As used herein, the ED₅₀ value represents the dose which protects 50% of the animals from emesis.

[5] = bilateral tonic seizures, ED₅₀ in mg/kg (TRY)-convulsions
[6] = hyperaemia of the ears, ED₅₀ in mg/kg (TRY)-hyperaemia
[7] = compound subcutaneously or orally, 1.25 mg/kg apomorphine i.v. at 30 minutes, observed 1 hour, dose which protects 50% of the animals

Structure (SMILES) | ED50 [1] | ED50 [2, 5] | ED50 [2, 6] | ED50 [3, 7] | ED50 [4] | ED50 [3]
Cc1nc2n(c(=O)c1CCN1CCN(c3noc4cc(F)ccc34)CC1)CCS2 [Compound 3, 6-[2-[4-(6-fluoro-1,2-benzisoxazol-3-yl)-1-piperazinyl]ethyl]-2,3-dihydro-7-methyl-5H-thiazolo[3,2-a]pyrimidin-5-one] | 0.08 mg/kg | 0.005 mg/kg | 0.00125 mg/kg | 0.02 mg/kg | 0.07 mg/kg | 
Cc1nc2ccccn2c(=O)c1CCN1CCN(c2nsc3ccccc23)CC1 [Compound 11] | 1.25 mg/kg | 0.08 mg/kg | 0.00031 mg/kg |  | 0.45 mg/kg | 0.08 mg/kg
Cc1nc2ccccn2c(=O)c1CCN1CCN(c2noc3cc(F)ccc23)CC1 [Compound 15] | 0.31 mg/kg | 0.08 mg/kg | 0.005 mg/kg | 0.04 mg/kg | 0.015 mg/kg | 
Cc1nc2ccccn2c(=O)c1CCN1CCN(c2n[nH]c3cc(F)ccc23)CC1 [Compound 16] |  | 0.08 mg/kg | 0.005 mg/kg | 0.08 mg/kg | < 0.01 mg/kg | 
Cc1nc2n(c(=O)c1CCN1CCN(c3noc4cc(F)ccc34)CC1)CCCC2 [Compound 20] |  | 0.08 mg/kg | 0.005 mg/kg | 0.08 mg/kg | 0.015 mg/kg | 
Cc1nc2n(c(=O)c1CCN1CCN(c3noc4cc(F)ccc34)CC1)CCCS2 [Compound 25] | 0.31 mg/kg | 0.08 mg/kg | ≤ 0.01 mg/kg | 0.08 mg/kg | 0.06 mg/kg | 
Cc1nc2n(c(=O)c1CCN1CCN(c3nsc4ccccc34)CC1)CCS2 [Compound 26] | 5 mg/kg | 0.02 mg/kg | 0.00125 mg/kg | 0.08 mg/kg | 0.03 mg/kg | 
Cc1nc2n(c(=O)c1CCN1CCN(c3noc4ccccc34)CC1)CCS2 [Compound 27] | 0.31 mg/kg | 0.03 mg/kg | 0.00125 mg/kg | 0.03 mg/kg | 0.06 mg/kg | 
Cc1nc2sccn2c(=O)c1CCN1CCN(c2noc3ccccc23)CC1 [Compound 31] | 1.25 mg/kg | 0.02 mg/kg | 0.00031 mg/kg |  | 0.03 mg/kg | 0.03 mg/kg
Cc1nc2sccn2c(=O)c1CCN1CCN(c2noc3cc(F)ccc23)CC1 [Compound 34] | 0.31 mg/kg | 0.08 mg/kg | < 0.01 mg/kg | 0.02 mg/kg | 0.015 mg/kg | 
Cc1nc2scc(C)n2c(=O)c1CCN1CCN(c2noc3cc(F)ccc23)CC1 [Compound 39] | 0.31 mg/kg | 0.04 mg/kg | < 0.04 mg/kg | 0.08 mg/kg | 0.03 mg/kg | 
Cc1nc2scc(C)n2c(=O)c1CCN1CCN(c2n[nH]c3cc(F)ccc23)CC1 [Compound 40] | 0.08 mg/kg | 0.02 mg/kg | 0.00031 mg/kg | 0.02 mg/kg | 0.0025 mg/kg | 
Cc1nc2ccccn2c(=O)c1CCN1CCN(c2n[nH]c3ccccc23)CC1 [Compound 41] | 1.25 mg/kg | 0.04 mg/kg | 0.005 mg/kg |  | 0.03 mg/kg | 0.08 mg/kg
Cc1nc2c(C)cccn2c(=O)c1CCN1CCN(c2noc3ccccc23)CC1 [Compound 45] | 1.25 mg/kg | 0.08 mg/kg | 0.02 mg/kg |  | > 0.01 mg/kg | 0.04 mg/kg
Cc1nc2c(C)cccn2c(=O)c1CCN1CCN(c2n[nH]c3cc(F)ccc23)CC1 [Compound 47] | 0.08 mg/kg | 0.08 mg/kg | 0.000125 mg/kg | 0.04 mg/kg | 0.001 mg/kg | 
Cc1nc2n(c(=O)c1CCN1CCN(c3nsc4ccccc34)CC1)CCCC2C (stereo not drawn) [Compound 55] | 10 mg/kg | 0.04 mg/kg | 0.0025 mg/kg | 0.04 mg/kg | > 0.016 mg/kg | 
Cc1nc2n(c(=O)c1CCN1CCN(c3n[nH]c4cc(F)ccc34)CC1)CCCC2C (stereo not drawn) [Compound 56] | 0.16 mg/kg | 0.08 mg/kg | 0.005 mg/kg | 0.08 mg/kg | 0.00045 mg/kg | 
Cc1nc2sccn2c(=O)c1CCN1CCN(c2n[nH]c3cc(F)ccc23)CC1 [Compound 63] | 0.16 mg/kg | 0.02 mg/kg | 0.00125 mg/kg | 0.02 mg/kg | 0.001 mg/kg | 
Cc1nc2sccn2c(=O)c1CCN1CCN(c2n[nH]c3ccccc23)CC1 [Compound 64] | 1.25 mg/kg | 0.08 mg/kg | 0.005 mg/kg |  |  | 0.08 mg/kg
Cc1nc2scc(C)n2c(=O)c1CCN1CCN(c2n[nH]c3ccccc23)CC1 [Compound 65] | 1.25 mg/kg | 0.04 mg/kg | 0.00063 mg/kg |  |  | 0.08 mg/kg
